Measured values from publication PMC2698029 (Journal of medicinal chemistry, 2009).
Where a name gives a salt, the structure may show the parent alone. Marks after values point to notes of the source that are not given here.

What was measured:
[1] = tested on: Plasmodium berghei, ANKA strain; settings: cited from earlier work; for Average survival time (not prolonged beyond day): single oral dose of 30 mg/kg, summary of Table 1
[2] = Thermal stability in the solid state; type: physicochemical; settings: 60 °C
[3] = tested on: Plasmodium berghei, ANKA strain; experiment: Single oral dose antimalarial efficacy in P. berghei-infected mice; type: in vivo, C57BL/6J male mice; settings: single oral dose 144 mg/kg
[4] = Hydrolytic stability in DMSO/water; type: physicochemical; settings: room temperature, 80/20 DMSO/water at pH 7.4
[5] = tested on: WT-MEF Noncancerous mouse embryonic fibroblasts; experiment: Cytotoxicity, SRB assay, WT-MEF noncancerous fibroblasts; type: cell-based; settings: Fibroblast, 72 h, read-out: IC50 Values (μM)
[6] = single oral dose of 30 mg/kg (printed in the 1 × 72 column)

| Structure (SMILES) | Average Survival (days) After Infection [1, 6] | Average survival time (not prolonged beyond day) [1] | Time stable in the solid state [2] | Parasitemia at day 30 ([3]; 2 of the 5 mice, appeared sick) | Time stable in solution [4] | IC50 [5] | Stability in the solid state for one week ([2]; one week) | Adverse effects ([3]; malaria-infected mice) | % Suppression of Parasitemia (on day 3 post infection) [1, 6] |
| --- | --- | --- | --- | --- | --- | --- | --- | --- | --- |
| C[C@H]1[C@H](OC(=O)CCC(=O)[O-])O[C@@H]2O[C@@]3(C)CC[C@H]4[C@H](C)CC[C@@H]1[C@@]24OO3.[Na+] [Dimer 1c, sodium artesunate] | 7.6 ^b days | ≤ 11 days | – | – | – | – | – | – | – |
| C[C@H]1[C@@H](CC(C[C@H]2O[C@@H]3C[C@]4(C)CC[C@H]5[C@H](C)CC[C@@H]([C@H]2C)[C@@]35OO4)CS(=O)(=O)c2ccc(CO)cc2)O[C@@H]2C[C@]3(C)CC[C@H]4[C@H](C)CC[C@@H]1[C@@]24OO3 (some centres unmarked) [Dimer 4b, dimeric sulfone benzylic alcohol] | – | – | ≥ 24 h | 7–9% | at least 12 hours | > 50 µM | – | – | – |
| C[C@H]1[C@@H](CC(C[C@H]2O[C@@H]3C[C@]4(C)CC[C@H]5[C@H](C)CC[C@@H]([C@H]2C)[C@@]35OO4)CS(=O)(=O)c2ccc(COC(=O)N(C)C)cc2)O[C@@H]2C[C@]3(C)CC[C@H]4[C@H](C)CC[C@@H]1[C@@]24OO3 [Dimer 4c, dimeric sulfone benzylic dimethyl carbamate] | – | – | ≥ 24 h | – | at least 12 hours | > 50 µM | stable | no adverse effects | – |
| CC(C)(N)CNC(=O)C[C@H]1CC[C@]2(CC1)OO[C@]1(O2)C2CC3CC(C2)CC1C3 [Dimer 7, OZ277 maleate] | 10.7 ^b days | ≤ 11 days | – | – | – | – | – | – | 99.95 ^b % |
